The values that follow are results of earlier work, collected in US20200253884A1, “NANOBIOLOGIC COMPOSITIONS FOR PROMOTING TRAINED IMMUNITY” (ICAHN SCHOOL OF MEDICINE AT MOUNT SINAI, priority 2017, published 2020).

In data set [1] the test system is diffuse large B-cell lymphoma (DLBCL). As to conditions: preliminary results.
The test system of a further data set is multiple cancers. The note with it: in vivo.

Consider “CT-011: humanized IgG1 monoclonal antibody against PD-1”, for which, in data set [1] (control group 47%), the “subjects progression-free at the end of the follow-up period” value is 70%. Also, in data set [1] (control group 62%), the subjects alive was 82%.

On to Medi 4736: anti-PD-L1 antibody, for which, in the data set with multiple cancers, the clinical activity result is “durable clinical activity” and the safety profile result is on record as “acceptable safety profile”.
